Patent publication US20080221132A1, “Multi-Functional Small Molecules as Anti-Proliferative Agents” (priority 2006, published 2008)
Like-named read-outs stand apart in the source and are kept apart here.

Assays:
Pancreas_CFPAC = assay: Cell proliferation assay (ATPlite), CFPAC; format: cell-based; conditions: TABLE C; 72 hours, 0.5% fetal bovine serum, ATP content; read-out: IC50 grading, Pancreas_CFPAC
Protocol: (§1) A representative number of compounds were assayed against several different cell lines using the cell proliferation assay:
(§2) Cell Proliferation Assay:
(§3) Cancer cell lines were plated at 5,000 to 10,000 per well in 96-well flatted bottomed plates with various concentration of compounds. The cells were incubated with compounds for 72 hours in the presence of 0.5% of fetal bovine serum. Growth inhibition was accessed by adenosine triphosphate (ATP) content assay using Perkin Elmer ATPlite kit. ATPlite is an ATP monitoring system based on firefly luciferase. Briefly, 25 μl of mammalian cell lysis solution was added to 50 μl of phenol red-free culture medium per well to lyse the cells and stabilize the ATP. 25 μl of substrate solution was then added to the well and subsequently the luminescence was measured.

Lung_H2122 = assay: Cell proliferation assay (ATPlite), H2122; format: cell-based; conditions: Homo sapiens, NCI-H2122; TABLE C; 72 hours, 0.5% fetal bovine serum, ATP content; read-out: IC50 grading, Lung_H2122
Protocol: as §1, §2, §3

[1] = system: Breast_MCF7 (MCF-7, breast adenocarcinoma); assay: Cell proliferation assay (ATPlite), MCF7; format: cell-based; conditions: Homo sapiens, TABLE C, 72 hours, 0.5% fetal bovine serum, ATP content, read-out: IC50 grading, Breast_MCF7
Protocol: as §1, §2
as §3, with “The cells were incubated with compounds for 72 hours in the presence of 0.5% of fetal bovine serum.” left out

VEGFR2 Kinase = VEGFR2 Kinase (Homo sapiens, UniProt P35968); assay: Kinase panel (TABLE F), VEGFR2 Kinase; format: biochemical
Sequence of VEGFR2 Kinase (P35968 20-1356): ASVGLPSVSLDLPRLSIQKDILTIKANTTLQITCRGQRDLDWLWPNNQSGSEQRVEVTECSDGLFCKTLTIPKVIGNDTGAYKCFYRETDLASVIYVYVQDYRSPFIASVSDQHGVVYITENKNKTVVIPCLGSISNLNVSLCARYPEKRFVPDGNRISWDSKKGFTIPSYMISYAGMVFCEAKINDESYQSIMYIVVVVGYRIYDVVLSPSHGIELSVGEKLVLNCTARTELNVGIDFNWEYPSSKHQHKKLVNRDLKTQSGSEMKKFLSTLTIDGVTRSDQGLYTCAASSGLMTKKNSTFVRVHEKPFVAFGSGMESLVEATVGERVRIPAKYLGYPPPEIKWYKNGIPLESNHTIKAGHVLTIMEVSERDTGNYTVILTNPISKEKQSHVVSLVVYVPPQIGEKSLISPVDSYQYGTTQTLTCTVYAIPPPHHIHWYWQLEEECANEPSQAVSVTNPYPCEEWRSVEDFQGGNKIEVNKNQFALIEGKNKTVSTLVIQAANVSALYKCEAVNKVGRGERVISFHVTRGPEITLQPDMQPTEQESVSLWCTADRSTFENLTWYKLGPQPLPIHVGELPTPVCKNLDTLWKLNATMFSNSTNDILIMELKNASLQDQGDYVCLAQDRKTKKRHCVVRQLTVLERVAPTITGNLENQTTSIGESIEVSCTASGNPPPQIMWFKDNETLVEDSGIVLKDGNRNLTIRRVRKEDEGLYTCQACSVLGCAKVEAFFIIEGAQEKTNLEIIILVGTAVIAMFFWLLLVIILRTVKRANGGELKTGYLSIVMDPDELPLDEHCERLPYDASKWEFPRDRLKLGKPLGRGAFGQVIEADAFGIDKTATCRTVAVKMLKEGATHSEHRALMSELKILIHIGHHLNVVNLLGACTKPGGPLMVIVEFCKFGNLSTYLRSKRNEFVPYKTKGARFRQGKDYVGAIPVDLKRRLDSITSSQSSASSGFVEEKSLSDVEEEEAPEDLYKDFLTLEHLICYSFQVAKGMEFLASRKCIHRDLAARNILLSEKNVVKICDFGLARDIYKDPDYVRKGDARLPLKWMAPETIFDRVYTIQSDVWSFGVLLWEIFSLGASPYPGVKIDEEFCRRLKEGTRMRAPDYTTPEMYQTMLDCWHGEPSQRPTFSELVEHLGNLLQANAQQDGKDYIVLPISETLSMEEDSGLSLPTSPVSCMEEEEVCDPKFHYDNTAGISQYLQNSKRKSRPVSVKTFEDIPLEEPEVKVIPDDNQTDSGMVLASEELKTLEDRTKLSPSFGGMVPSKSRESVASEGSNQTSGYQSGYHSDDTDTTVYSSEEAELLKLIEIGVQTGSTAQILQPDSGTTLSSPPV

[2] = male, CD-1, mouse, in vivo, ip, 7 days
Protocol: 7-day-multiple dosing MTD in mice • a. CD-1 mice, male, 24-26 gram • b. Dosing at 0, 50, 100, 200 mg/kg/d ip • c. 6 mice per group • d. Blood and organs will be collected 2 hr after last dosing on Day 7 for hematology
(§4) Stock solution is diluted with 30% CAPTISOL before use.

[3] = system: Breast_SkBr3 (SKBr3, breast carcinoma); assay: Cell proliferation assay (ATPlite), SkBr3; format: cell-based; conditions: Homo sapiens, SK-BR-3
Protocol: as §1, §2
as §3, with “The cells were incubated with compounds for 72 hours in the presence of 0.5% of fetal bovine serum.” left out

[4] = male, CD-1, mouse, in vivo, iv, 9 day
Protocol: Single dosing MTD in mice • a. CD-1 mice, male, 24-26 gram • b. Dosing at 0, 50, 100, 200, 400 mg/kg, iv infusion 2 min • c. 8 mice per group
as §4

Ret Kinase = Ret Kinase (Homo sapiens, UniProt P07949); assay: Kinase panel (TABLE F), Ret Kinase; format: biochemical
Sequence of Ret Kinase (P07949 29-1114): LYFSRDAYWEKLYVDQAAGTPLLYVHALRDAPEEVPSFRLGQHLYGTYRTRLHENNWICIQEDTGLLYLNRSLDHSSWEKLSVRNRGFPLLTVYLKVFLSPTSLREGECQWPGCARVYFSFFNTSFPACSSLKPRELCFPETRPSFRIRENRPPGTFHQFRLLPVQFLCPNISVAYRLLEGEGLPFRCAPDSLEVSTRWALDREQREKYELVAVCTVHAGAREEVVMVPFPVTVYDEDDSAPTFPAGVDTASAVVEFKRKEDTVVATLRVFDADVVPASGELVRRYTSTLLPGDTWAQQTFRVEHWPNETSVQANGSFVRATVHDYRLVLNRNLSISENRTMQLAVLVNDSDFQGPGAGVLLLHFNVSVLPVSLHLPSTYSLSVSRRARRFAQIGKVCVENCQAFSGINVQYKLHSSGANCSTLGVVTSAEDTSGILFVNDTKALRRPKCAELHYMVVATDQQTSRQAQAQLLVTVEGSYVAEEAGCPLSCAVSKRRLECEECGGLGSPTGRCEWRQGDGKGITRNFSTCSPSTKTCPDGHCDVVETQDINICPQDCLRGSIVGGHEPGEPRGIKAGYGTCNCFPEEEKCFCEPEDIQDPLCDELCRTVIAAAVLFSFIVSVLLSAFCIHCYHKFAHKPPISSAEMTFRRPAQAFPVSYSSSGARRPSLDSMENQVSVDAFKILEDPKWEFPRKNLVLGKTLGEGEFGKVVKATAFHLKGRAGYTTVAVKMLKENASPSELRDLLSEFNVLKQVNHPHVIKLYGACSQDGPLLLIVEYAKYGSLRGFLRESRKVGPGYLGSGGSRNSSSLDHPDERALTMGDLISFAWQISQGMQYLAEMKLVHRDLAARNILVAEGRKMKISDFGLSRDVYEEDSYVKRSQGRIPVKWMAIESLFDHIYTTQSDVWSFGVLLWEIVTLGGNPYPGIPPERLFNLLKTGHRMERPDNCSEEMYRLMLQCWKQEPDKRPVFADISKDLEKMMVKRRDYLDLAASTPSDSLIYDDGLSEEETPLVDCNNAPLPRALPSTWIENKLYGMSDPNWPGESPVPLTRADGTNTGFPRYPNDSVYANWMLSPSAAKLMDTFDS

[5] = system: Prostate_PC3 (PC-3, prostate adenocarcinoma); assay: Cell proliferation assay (ATPlite), PC3; format: cell-based
Protocol: as §1, §2
as §3, with “The cells were incubated with compounds for 72 hours in the presence of 0.5% of fetal bovine serum.” left out

Pancreas_HPAC = assay: Cell proliferation assay (ATPlite), HPAC; format: cell-based; conditions: Homo sapiens, TABLE C, 72 hours, 0.5% fetal bovine serum, ATP content, read-out: IC50 grading, Pancreas_HPAC
Protocol: as §1, §2, §3

[6] = system: Prostate_22RV1 (22RV1, prostate carcinoma); assay: Cell proliferation assay (ATPlite), 22RV1; format: cell-based; conditions: Homo sapiens
Protocol: as §1, §2
as §3, with “The cells were incubated with compounds for 72 hours in the presence of 0.5% of fetal bovine serum.” left out

Pancreas_BxPC3 = assay: Cell proliferation assay (ATPlite), BxPC3; format: cell-based; conditions: Homo sapiens, BXPC-3; TABLE C; 72 hours, 0.5% fetal bovine serum, ATP content; read-out: IC50 grading, Pancreas_BxPC3
Protocol: as §1, §2, §3

Abl Kinase = Abl Kinase (Homo sapiens, UniProt P00519); assay: Kinase panel (TABLE F), Abl Kinase; format: biochemical
Sequence of Abl Kinase (P00519 whole entry): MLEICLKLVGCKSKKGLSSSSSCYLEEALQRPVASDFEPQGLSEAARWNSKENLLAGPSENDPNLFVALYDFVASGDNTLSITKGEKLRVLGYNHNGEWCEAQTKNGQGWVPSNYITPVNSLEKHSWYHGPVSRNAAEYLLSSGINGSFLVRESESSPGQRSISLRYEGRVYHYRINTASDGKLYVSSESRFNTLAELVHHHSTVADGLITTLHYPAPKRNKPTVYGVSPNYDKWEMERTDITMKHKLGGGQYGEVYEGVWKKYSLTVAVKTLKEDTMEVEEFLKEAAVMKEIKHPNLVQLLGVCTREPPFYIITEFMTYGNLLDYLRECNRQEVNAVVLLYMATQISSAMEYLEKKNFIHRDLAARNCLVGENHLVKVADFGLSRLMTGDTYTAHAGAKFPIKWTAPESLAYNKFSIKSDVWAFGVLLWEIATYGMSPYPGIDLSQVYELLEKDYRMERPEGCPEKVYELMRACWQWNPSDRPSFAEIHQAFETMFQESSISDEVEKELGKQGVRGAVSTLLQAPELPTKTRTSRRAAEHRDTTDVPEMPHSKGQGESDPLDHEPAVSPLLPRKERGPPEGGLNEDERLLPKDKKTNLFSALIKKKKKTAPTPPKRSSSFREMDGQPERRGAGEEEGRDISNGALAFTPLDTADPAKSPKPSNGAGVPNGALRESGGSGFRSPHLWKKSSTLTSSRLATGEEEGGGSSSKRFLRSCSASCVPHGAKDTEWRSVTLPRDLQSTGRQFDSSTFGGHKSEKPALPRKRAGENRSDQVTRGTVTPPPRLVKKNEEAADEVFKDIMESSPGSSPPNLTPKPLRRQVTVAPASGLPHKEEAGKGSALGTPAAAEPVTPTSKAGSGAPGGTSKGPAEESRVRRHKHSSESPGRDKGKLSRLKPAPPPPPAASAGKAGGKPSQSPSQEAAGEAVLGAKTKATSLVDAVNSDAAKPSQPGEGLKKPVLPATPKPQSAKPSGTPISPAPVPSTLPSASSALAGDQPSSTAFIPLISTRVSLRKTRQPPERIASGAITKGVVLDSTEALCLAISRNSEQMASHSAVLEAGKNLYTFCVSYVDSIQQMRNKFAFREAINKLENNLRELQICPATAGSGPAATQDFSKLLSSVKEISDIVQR

Lung_H460 = assay: Cell proliferation assay (ATPlite), H460; format: cell-based; conditions: Homo sapiens, NCI-H460; TABLE C; 72 hours, 0.5% fetal bovine serum, ATP content; read-out: IC50 grading, Lung_H460
Protocol: as §1, §2, §3

[7] = system: Breast_MDAMB468 (MDA-MB-468, breast adenocarcinoma); assay: Cell proliferation assay (ATPlite), MDA-MB-468; format: cell-based; conditions: Homo sapiens, TABLE C, 72 hours, 0.5% fetal bovine serum, ATP content, read-out: IC50 grading, Breast_MDAMB468
Protocol: as §1, §2
as §3, with “The cells were incubated with compounds for 72 hours in the presence of 0.5% of fetal bovine serum.” left out

in vivo = conditions: male, CD-1, mouse, ip; for AUC: AUC (h * ng/ml)
Protocol: Drug Preparation and Administration.
Blood and tissue Sample Collection.
Plasma Sample Extraction. Plasma samples were prepared by protein precipitation. An internal standard was added into plasma samples. […] The supernatant was then injected onto LC/MS/MS.
Samples were compared to standards made in plasma. These standards were prepared by serial dilution.
Tissue Sample Extraction. […] Tissues were homogenized in 0.8 ml water. An internal standard was added into the tissue homogenates.
LC/MS/MS Analytical Methods.
LC Conditions are shown below:

Lck Kinase = Lck Kinase (Homo sapiens, UniProt P06239); assay: Kinase panel (TABLE F), Lck Kinase; format: biochemical
Sequence of Lck Kinase (P06239 whole entry): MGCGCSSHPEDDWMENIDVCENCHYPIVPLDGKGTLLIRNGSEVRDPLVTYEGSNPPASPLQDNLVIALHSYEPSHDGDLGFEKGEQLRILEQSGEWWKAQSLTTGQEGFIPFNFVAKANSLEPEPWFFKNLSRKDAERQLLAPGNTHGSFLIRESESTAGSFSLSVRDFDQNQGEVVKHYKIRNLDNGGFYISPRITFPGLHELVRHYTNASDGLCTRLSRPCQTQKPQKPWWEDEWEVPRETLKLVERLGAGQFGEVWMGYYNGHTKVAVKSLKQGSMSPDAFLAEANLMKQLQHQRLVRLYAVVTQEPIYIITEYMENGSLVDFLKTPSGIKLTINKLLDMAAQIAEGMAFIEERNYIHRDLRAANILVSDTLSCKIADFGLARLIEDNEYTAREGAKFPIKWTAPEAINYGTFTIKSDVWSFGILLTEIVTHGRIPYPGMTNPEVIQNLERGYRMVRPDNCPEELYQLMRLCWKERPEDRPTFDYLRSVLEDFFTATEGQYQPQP

Pancreas_MiaPaCa2 = assay: Cell proliferation assay (ATPlite), MiaPaCa2; format: cell-based; conditions: Homo sapiens, MIA PaCa-2; TABLE C; 72 hours, 0.5% fetal bovine serum, ATP content; read-out: IC50 grading, Pancreas_MiaPaCa2
Protocol: as §1, §2, §3

[8] = system: Colon_HCT116 (HCT116, colon cancer); assay: Cell proliferation assay (ATPlite), HCT116; format: cell-based; conditions: Homo sapiens, HCT-116; TABLE C; 72 hours, 0.5% fetal bovine serum, ATP content; read-out: IC50 grading, Colon_HCT116
Protocol: as §1, §2
as §3, with “The cells were incubated with compounds for 72 hours in the presence of 0.5% of fetal bovine serum.” left out

FLT-3 Kinase = FLT-3 Kinase (Homo sapiens, UniProt P36888); assay: Kinase panel (TABLE F), FLT-3 Kinase; format: biochemical
Sequence of FLT-3 Kinase (P36888 27-993): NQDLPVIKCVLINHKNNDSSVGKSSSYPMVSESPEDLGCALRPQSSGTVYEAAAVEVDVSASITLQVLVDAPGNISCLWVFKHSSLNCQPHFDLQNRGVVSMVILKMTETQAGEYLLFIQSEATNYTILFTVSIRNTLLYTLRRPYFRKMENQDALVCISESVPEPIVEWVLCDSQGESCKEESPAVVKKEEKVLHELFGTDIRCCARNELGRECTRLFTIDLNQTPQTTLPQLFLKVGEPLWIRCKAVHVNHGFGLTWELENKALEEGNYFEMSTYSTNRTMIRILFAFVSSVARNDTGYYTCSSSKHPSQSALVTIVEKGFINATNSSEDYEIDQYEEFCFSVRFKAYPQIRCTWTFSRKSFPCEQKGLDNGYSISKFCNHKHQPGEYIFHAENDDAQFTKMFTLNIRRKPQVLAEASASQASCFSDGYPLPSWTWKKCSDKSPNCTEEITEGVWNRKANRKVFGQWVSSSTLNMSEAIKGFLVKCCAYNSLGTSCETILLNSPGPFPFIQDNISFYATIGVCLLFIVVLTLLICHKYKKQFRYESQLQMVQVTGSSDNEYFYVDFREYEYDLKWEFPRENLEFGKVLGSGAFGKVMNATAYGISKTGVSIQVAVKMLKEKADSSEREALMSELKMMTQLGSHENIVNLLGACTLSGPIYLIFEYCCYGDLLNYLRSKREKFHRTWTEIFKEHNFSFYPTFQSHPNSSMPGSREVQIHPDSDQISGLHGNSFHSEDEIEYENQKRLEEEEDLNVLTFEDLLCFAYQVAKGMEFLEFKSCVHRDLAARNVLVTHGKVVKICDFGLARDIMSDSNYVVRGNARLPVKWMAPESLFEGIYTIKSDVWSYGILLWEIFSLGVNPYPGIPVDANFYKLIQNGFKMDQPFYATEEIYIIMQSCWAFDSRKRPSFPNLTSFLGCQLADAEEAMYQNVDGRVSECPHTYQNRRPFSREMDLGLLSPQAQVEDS

Lung_H292 = assay: Cell proliferation assay (ATPlite), H292; format: cell-based; conditions: Homo sapiens, NCI-H292; TABLE C; 72 hours, 0.5% fetal bovine serum, ATP content; read-out: IC50 grading, Lung_H292
Protocol: as §1, §2, §3

Pancreas_Capan1 = assay: Cell proliferation assay (ATPlite), Capan1; format: cell-based; conditions: Homo sapiens, CAPAN-1; TABLE C; 72 hours, 0.5% fetal bovine serum, ATP content; read-out: IC50 grading, Pancreas_Capan1
Protocol: as §1, §2, §3

Structure (SMILES): C#Cc1cccc(Nc2ncnc3cc(OC)c(OCCCCCCC(=O)NO)cc23)c1 [Compound 12]
- IC50 (Pancreas_CFPAC): 100 to 1000 nM
- IC50 (Lung_H2122): 100 to 1000 nM
- IC50 [1]: < 100 nM
- inhibition at 5 µM (VEGFR2 Kinase): 64%
- dose without significant change in body weight [2]: up to 100 mg/kg
- IC50 ([3]; TABLE C, 72 hours, 0.5% fetal bovine serum, ATP content, read-out: IC50 grading, Breast_SkBr3): 100 to 1000 nM
- IC50 ([3]; TABLE D, Breast carcinoma, read-out: IC50 grading, SKBr3): 50 to 500 nM
- dose without significant change in body weight [4]: up to 200 mg/kg
- inhibition at 5 µM (Ret Kinase): 93%
- IC50 ([5]; TABLE C, 72 hours, 0.5% fetal bovine serum, ATP content, read-out: IC50 grading, Prostate_PC3): 100 to 1000 nM
- IC50 ([5]; TABLE D, Prostate adenocarcinoma, read-out: IC50 grading, PC-3): 500 to 5000 nM
- IC50 (Pancreas_HPAC): 1000 to 10000 nM
- IC50 ([6]; TABLE C, 72 hours, 0.5% fetal bovine serum, ATP content, read-out: IC50 grading, Prostate_22RV1): 100 to 1000 nM
- IC50 ([6]; TABLE D, Prostate carcinoma, read-out: IC50 grading, 22RV1): 50 to 500 nM
- IC50 (Pancreas_BxPC3): < 100 nM
- inhibition at 5 µM (Abl Kinase): 57%
- IC50 (Lung_H460): 100 to 1000 nM
- IC50 [7]: < 100 nM
- AUC (in vivo; 20 mg/kg): 3750 ng·h/mL
- AUC (in vivo; 60 mg/kg): 5720 ng·h/mL
- Cmax (in vivo; 60 mg/kg, Cmax (uM)): 14.4 µM
- inhibition at 5 µM (Lck Kinase): 56%
- IC50 (Pancreas_MiaPaCa2): 100 to 1000 nM
- IC50 [8]: 100 to 1000 nM
- inhibition at 5 µM (FLT-3 Kinase): 85%
- IC50 (Lung_H292): < 100 nM
- IC50 (Pancreas_Capan1): 100 to 1000 nM
